Laboratory results: patent publication US6825217B2, “Carbinols for the treatment of neuropathic dysfunction” (Endo Pharmaceuticals, Inc., priority 2001, dated 2004)

Legend:
[1] = molecular target: T1, delta receptor sites in the brain (Homo sapiens, UniProt P41143); assay: Activity at delta receptor sites in the brain; assay type: binding
T1 construct: mu, kappa, delta or sigma receptor sites in the brain; from tissue

[2] = test system: prostaglandin synthesase; assay: Prostaglandin synthesase inhibition; assay type: biochemical
[3] = Chung model (tactile allodynia); assay type: in vivo, rat
Experimental: This model for neuropathic pain was performed on rats using the surgical procedure described by Kim and Chung (1992) to induce an allodynic state. Briefly, the left L-5 and L-6 spinal nerves were isolated adjacent to the vertebral column and ligated with 6-0 silk suture distal to the dorsal root ganglion under isoflurane anesthesia. This model allows for spinal cord structural reorganization and growth of low threshold mechnoreceptor fibers from the spinal cord with synaptic connections and rewiring of the dorsal horn. This leads to spontaneous firing of invading sympathetic nerves and upregulation of receptors and voltage-dependent channels; i.e. mimics the development of allodynia (nociceptive response to a previously neutral stimulus). The rats were allowed a minimum of 7-days postoperative recovery period before testing.
To assess tactile thresholds in the Chung model, rats were placed in a clear plastic, wire mesh-bottomed cage, divided into individual compartments. Animals were allowed to acclimate and then baseline thresholds were assessed prior to drug treatment. To assess the 50% mechanical threshold for paw withdrawal, von Frey hairs were applied to the plantar mid-hindpaw, avoiding the tori (footpads). The eight von Frey hairs used are designated by [log (10*force required to bend hair, mg)] and range from 0.4-15.1 grams (#'s 3.61-5.18). Each hair was pressed perpendicularly against the paw with sufficient force to cause slight bending, and held for approximately 6-8 seconds. A positive response was noted if the paw was sharply withdrawn. Flinching immediately upon removal of the hair was also considered a positive response. Absence of a response (“−”) was cause to present the next consecutive stronger stimulus; a positive response (“+”) was cause to present the next weaker stimulus. Stimuli were presented successively until either six data points were collected, or the maximum or minimum stimulus was reached. If a minimum stimulus was reached and positive responses still occurred, the threshold was assigned an arbitrary minimum value of 0.25 grams; if a maximum stimulus was presented and no response occurred, a maximum threshold value of 15 grams was assigned. If a change in response occurs, either “−” to “+” or “+” to “−”, causing a change in the direction of stimulus presentation from descending to ascending or vice-versa, four additional data points were collected subsequent to the change.

[4] = Safety pharmacology, mouse; assay type: in vivo
[5] = Safety pharmacology, monkey; assay type: in vivo
[6] = molecular target: T2, rat synaptosomal NE Reuptake (Rattus norvegicus, UniProt Q63380); assay: Norepinephrine reuptake assay (rat synaptosomal NE uptake); assay type: biochemical
T2 construct: rat synaptosomal 5-HT and NE Reuptake; from tissue; host or cells: rat synaptosomes (rat brain preparations)

[7] = test system: sigma receptor sites in the brain; assay: Activity at sigma receptor sites in the brain; assay type: binding
[8] = Five-day Oral Dose Escalation in Beagle Dogs; assay type: in vivo, Beagle dog
[9] = Fourteen-day Oral Dose Range Finding Study in Rats; assay type: in vivo, rat
[10] = Monkey tail dip; assay type: in vivo; details: unmarked entry of animal model table
[11] = Abuse assay (self-administration); assay type: in vivo, Cynomologous monkeys
Experimental: Cynomologous monkeys are trained to self-administer drugs by pressing on a lever a certain number of times. The number of times an animal will press the lever before extinquishing in an attempt to self-administer drug is calculated as their fixed ratio (FR). For example, cynomologous monkeys that are trained to self-administer codeine will press the lever 300 times (FR 300) and or 10,000 times (FR 10,000) to obtain a dose of codeine. Cynomologous monkeys were trained to self-administer the compounds of the present invention.

[12] = Side effects at effective doses; assay type: in vivo; details: at effective doses for neuropathic pain
[13] = Formalin model; assay type: in vivo; details: rat
Text: Formalin induces inflammatory stimulation of peripheral nerves that results in sensitization of CNS nociceptive transmission pathways. There are two phases of formalin-induced nociception: phase I—an acute nociceptive component; and phase II—a chronic nociceptive component characterized by hyperalgesia.
On the morning of formalin testing, a small metal band (0.5 g) was loosely placed around the right hind paw. The rat was placed in a cylindrical Plexiglas chamber for adaptation for a minimum of 30 minutes. Compound A, venlafaxine or a saline control was administered into the dorsal surface of the right hindpaw of the rat. The animal was then placed into the chamber of the automated formalin apparatus where movement of the formalin-injected paw was monitored and the number of paw flinches tallied by minute over the next sixty minutes. Upon completion of the test the animal was removed and euthanized.

[14] = Mouse Tail-Flick; assay type: in vivo; design: key to activity in mouse Tail flick model: *: Inactive; Φ: Weakly active
[15] = Rat tooth pulp; assay type: in vivo; details: unmarked entry of animal model table
[16] = Rat Tail-Flick; assay type: in vivo; design: key to activity in rat Tail Flick model: *: Inactive; Φ: Weakly active
[17] = test system: Bacterial Mutagenicity; assay: In Vitro Bacterial Mutagenicity: Modified Ames Test; assay type: cell-based
[18] = Dog tooth pulp; assay type: in vivo; details: unmarked entry of animal model table
[19] = molecular target: T3, rat synaptosomal 5-HT Reuptake (Rattus norvegicus, UniProt P31652); assay: Serotonin reuptake assay (rat synaptosomal 5-HT uptake); assay type: biochemical
T3 construct: rat synaptosomal 5-HT and NE Reuptake; from tissue; host or cells: rat synaptosomes (rat brain preparations)

[20] = Rat Randall-Selitto; assay type: in vivo; design: key to activity in rat Randell-Selitto model: *: Inactive; Φ: Weakly active
[21] = molecular target: T4, uptake of dopamine (Rattus norvegicus, UniProt P23977); assay: Dopamine uptake in rat brain preparations; assay type: biochemical; details: printed as 'and/or dopamine'
T4 construct: dopamine in rat brain preparations; from tissue; host or cells: rat brain preparations

[22] = Anti-inflammatory effects in vivo
[23] = all administered doses, versus saline control

T3 sequence (P31652 whole entry): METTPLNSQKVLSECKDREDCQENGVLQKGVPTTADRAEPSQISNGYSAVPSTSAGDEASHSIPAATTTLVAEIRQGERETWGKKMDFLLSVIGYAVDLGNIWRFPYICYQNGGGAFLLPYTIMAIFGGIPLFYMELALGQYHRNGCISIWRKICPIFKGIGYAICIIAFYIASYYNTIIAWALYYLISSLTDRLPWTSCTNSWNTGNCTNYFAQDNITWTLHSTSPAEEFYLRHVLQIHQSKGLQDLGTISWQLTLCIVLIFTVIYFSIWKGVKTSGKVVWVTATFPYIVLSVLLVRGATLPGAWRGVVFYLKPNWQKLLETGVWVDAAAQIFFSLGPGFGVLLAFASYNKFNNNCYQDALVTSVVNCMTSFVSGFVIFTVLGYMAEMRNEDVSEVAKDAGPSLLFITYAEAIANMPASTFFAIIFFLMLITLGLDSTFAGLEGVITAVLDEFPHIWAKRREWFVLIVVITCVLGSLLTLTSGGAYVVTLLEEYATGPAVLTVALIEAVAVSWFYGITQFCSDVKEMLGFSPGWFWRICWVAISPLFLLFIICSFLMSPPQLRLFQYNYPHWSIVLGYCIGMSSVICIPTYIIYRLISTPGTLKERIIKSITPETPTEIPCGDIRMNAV
T2 sequence (Q63380 1-617): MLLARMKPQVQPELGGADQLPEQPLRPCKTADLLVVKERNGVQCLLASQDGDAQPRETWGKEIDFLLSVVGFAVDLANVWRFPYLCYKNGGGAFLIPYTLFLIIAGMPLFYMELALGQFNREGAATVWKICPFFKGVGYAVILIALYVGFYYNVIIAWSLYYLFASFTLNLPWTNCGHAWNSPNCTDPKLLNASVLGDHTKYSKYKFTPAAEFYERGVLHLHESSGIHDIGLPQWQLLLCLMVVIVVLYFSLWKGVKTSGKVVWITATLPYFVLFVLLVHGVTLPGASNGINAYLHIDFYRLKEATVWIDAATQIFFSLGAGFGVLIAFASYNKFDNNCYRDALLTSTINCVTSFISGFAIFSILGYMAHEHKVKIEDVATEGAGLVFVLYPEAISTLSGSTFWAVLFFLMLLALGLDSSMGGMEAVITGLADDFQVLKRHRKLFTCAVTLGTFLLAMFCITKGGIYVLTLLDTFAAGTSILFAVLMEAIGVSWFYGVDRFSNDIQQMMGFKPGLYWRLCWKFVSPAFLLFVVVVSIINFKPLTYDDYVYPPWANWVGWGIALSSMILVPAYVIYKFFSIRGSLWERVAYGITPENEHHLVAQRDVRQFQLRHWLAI
T4 sequence (P23977 whole entry): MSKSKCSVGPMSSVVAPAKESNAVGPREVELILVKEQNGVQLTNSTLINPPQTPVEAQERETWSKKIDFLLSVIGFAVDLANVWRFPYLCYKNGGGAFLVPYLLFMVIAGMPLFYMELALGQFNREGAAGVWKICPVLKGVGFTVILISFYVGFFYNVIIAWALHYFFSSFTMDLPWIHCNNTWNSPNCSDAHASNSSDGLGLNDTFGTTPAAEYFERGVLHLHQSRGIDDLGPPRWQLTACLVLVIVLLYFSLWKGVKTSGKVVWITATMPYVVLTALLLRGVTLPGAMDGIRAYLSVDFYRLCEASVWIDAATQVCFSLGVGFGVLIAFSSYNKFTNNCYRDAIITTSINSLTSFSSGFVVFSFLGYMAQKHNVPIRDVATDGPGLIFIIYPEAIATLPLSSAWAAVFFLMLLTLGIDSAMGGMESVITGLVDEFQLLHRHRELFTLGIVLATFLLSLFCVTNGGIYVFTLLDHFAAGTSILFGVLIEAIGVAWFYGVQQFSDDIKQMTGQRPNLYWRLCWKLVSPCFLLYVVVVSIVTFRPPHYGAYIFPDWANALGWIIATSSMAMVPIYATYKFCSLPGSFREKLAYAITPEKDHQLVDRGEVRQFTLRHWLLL
T1 sequence (P41143 whole entry): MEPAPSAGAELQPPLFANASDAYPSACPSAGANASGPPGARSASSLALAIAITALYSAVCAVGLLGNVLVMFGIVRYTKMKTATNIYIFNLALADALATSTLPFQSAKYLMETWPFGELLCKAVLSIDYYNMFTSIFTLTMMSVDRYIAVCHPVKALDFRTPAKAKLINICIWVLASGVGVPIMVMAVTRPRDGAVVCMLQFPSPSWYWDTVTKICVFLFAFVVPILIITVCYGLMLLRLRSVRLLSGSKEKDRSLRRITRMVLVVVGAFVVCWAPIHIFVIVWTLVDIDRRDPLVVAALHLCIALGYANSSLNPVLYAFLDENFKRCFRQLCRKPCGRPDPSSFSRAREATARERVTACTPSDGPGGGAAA

In the case of CN1CCC(c2ccsc2)(C(C)(C)O)CC1 [Compound A, 4-(3-thienyl)-α,α,1-trimethyl-4-piperidinemethanol], the “activity at delta receptor sites” value [1] is reported as “does not show significant activity”, the “inhibition of prostaglandin synthesase activity” value [2] is reported as “does not inhibit” and the “effect upon arousal or motor function” value ([3]; at doses effective in formalin and Chung models) is reported as “no effect upon arousal or motor function”. For the same compound, the “effect upon tactile allodynia arising from nerve injury” value ([3]; rat) was “reliable dose dependent effect”, the “effects on tactile allodynia” value ([3]; rat, two hours post injection, doses 200 mg/kg and 100 mg/kg) was “statistically significant effects” and the LD ([4]; po) was “LD = 900 mg/kg-po”. For the same compound, the “cross-tolerance to morphine, multiple of effective dose” value ([4]; po/iv) was 1-50 X, the “inhibition of GI motility, multiple of effective dose” value ([4]; po/iv) was 1 X and the “mydriasis, multiple of effective dose” value ([4]; po/iv) was 1 X. The MTD ([5]; in vivo, other: iv/sc) was 16 to 32 mg/kg, the LD ([5]; iv/sc) was “LD = 1.6-32 mg/kg” and the physical dep ([5]; iv/sc) was “non-opioid”. For the same compound, the “respiratory depression, multiple of effective dose (mg/kg)” value ([5]; iv/sc) was 16/32, the “Chronic dosing: effect at 0.4” value ([5]; iv/sc, 0.4, at 7 days) was 0.4 = retching and the “Chronic dosing: effect at 1.6” value ([5]; iv/sc, 1.6, at 11 days) was 1.6 = death. The “Chronic dosing: effect at 1.6” value ([5]; iv/sc, 1.6, at 20 days) was 1.6 = death, the uptake of norepinephrine ([6]; rat brain preparations) was “inhibits uptake” and the IC50 ([6]; rat synaptosomal, read-out: NE uptake inhibition IC50) was 223 nM. The “activity at sigma receptor sites” value [7] was “does not show significant activity”, the “NOEL (mydriasis)” value [8] was “NOEL < 2.5 mg/kg” and the MTD at 5 day ([8]; dog, in vivo, read-out: MTD (decreased BW)) was less than 20 mg/kg. The “NOEL (exophthalamos)” value [9] was “NOEL < 30 mg/kg”, the NOAEL at 14 day ([9]; rat, in vivo) was 100 mg/kg and the “activity in monkey Tail dip model” value [10] was “showed activity”. For the same compound, the “monkeys responding following involuntary injections” value ([11]; Cynomologous monkeys) was “two out of four monkeys”, the self-administration response achieved ([11]; Cynomologous monkeys trained to self-administer) was “one out of four monkeys” and the “anticholinergic side effects, sedation or other signs of motor impairment” value [12] was “not accompanied by anticholinergic side effects, sedation or other signs of motor impairment”. The “effect upon hyperalgesia induced by injection of formalin into the paw” value [13] was “reliable dose dependent effect”, the “formalin test, paw flinches, phase I” value ([13]; all administered doses (200/100/50 mg per kg), versus saline control) was “statistically significant effects” and the “formalin test, paw flinches, phase II” value [13, 23] was “statistically significant effects”. The “formalin test, paw flinches, phase IIA” value [13, 23] was “statistically significant effects”, the “formalin test, paw flinches, Phase IIB” value ([13]; versus saline control) was “No statistical significance” and the ED50 ([14]; Mus musculus, read-out: Mouse Tail-Flick ED50) was 117 mg/kg. For the same compound, the “activity in mouse Tail flick model” value ([14]; mouse) was “Tail flick^Φ”, the “activity in rat Tooth pulp model” value [15] was “showed activity” and the “Rat Tail-Flick” value [16] was “Inactive”. The “activity in rat Tail Flick model” value [16] was “Tail Flick*”, the “In Vitro Bacterial Mutagenicity: Modified Ames Test” value [17] was “Not mutagenic” and the “activity in dog Tooth pulp model” value [18] was “showed activity”. The IC50 [19] was 120 nM, the uptake of serotonin ([19]; rat brain preparations) was “inhibits uptake” and the ED50 ([20]; Rattus norvegicus) was 32 mg/kg. For the same compound, the “activity in rat Randell-Selitto model” value ([20]; rat) was “Randell-Selitto^Φ”, the uptake of dopamine [21] was “inhibits uptake” and the “anti-inflammatory effects in vivo” value [22] was “does not inhibit prostaglandin synthesase activity or show anti-inflammatory effects in vivo”.
